# Assays:
# 12_J03-18 = experiment: fluorogenic glycosidase kinetics; format: biochemical, uncultured bacterium (Castor canadensis fecal metagenome)
# From the text: fluorogenic glycosidase kinetics on 12_J03-18
# 12_H03-13 = experiment: fluorogenic glycosidase kinetics; format: biochemical, uncultured bacterium (Castor canadensis fecal metagenome); settings: GH43 domain site
# From the text: fluorogenic glycosidase kinetics on 12_H03-13
structure (smiles),measurement,setting,value
Cc1cc(=O)oc2cc(O[C@@H]3OC[C@@H](O)[C@H](O)[C@H]3O)c(Cl)cc12 [6-chloro-4-methylumbelliferyl β-D-xyloside],Km,12_J03-18,480 ± 60 µM
same,Km,12_H03-13,190 ± 30 µM
same,Km,12_H03-13; GH8 catalytic acid residue mutated,140 ± 10 µM
